According to patent US12583866B2, “Pyrido[2,3-b][1,4]oxazines or tetrahydropyrido[2,3-b][1,4]oxazepines as IAP antagonists” (BEIGENE, LTD., priority 2020, dated 2026):

Legend:
[1] = biological target: T1, recombinant human cIAP1-BIR3 protein (Homo sapiens, UniProt Q13490); test: Recombinant human c-IAP1-BIR3 biochemical assay (HTRF, peptide displacement); conditions: 1.2 nM cIAP1-BIR3, 3 nM AbuRPF-K(5-Fam)-NH2 peptide, read-out: Protein binding IC50 (nM) c-IAP1
T1 construct: recombinant human cIAP1-BIR3 protein; purchased Reaction biology APT-11-370
T1 sequence (Q13490 253-363 limits assumed): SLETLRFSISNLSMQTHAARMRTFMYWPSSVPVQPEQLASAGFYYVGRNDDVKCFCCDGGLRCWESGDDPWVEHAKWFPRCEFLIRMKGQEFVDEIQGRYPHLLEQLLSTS
Outline: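 1.2 nM cIAP1-BIR3 preincubated 1 h at room temperature with compound (10 points, 4-fold, top 10 uM) in 20 mM HEPES pH 7.5, 50 mM NaCl, 1 mM DTT; 3 nM AbuRPF-K(5-Fam)-NH2 then added for 1 h, then anti-6His Tb cryptate for 1 h. 520/490 nm ratio; IC50 by four-parameter logistic fit.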

[2] = biological target: T2, recombinant human XIAP-BIR3 protein (Homo sapiens, UniProt P98170); test: Recombinant human XIAP-BIR3 biochemical assay (HTRF, peptide displacement); conditions: 3.7 nM XIAP-BIR3, 7.6 nM AbuRPF-K(5-Fam)-NH2 peptide, read-out: Protein binding IC50 (nM) XIAP
T2 construct: recombinant human XIAP-BIR3 protein; purchased Reaction biology APT-11-374
T2 sequence (P98170 241-356 limits assumed): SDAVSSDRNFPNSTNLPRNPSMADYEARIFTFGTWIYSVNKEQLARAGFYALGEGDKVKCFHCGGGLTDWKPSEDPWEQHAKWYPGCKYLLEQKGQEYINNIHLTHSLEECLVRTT
Outline: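 3.7 nM His-tagged XIAP-BIR3 was preincubated 1 h RT with compound (top 10 µM, 4-fold, 10 points) in 20 mM HEPES pH 7.5, 50 mM NaCl, 0.005% Tween-20, 1 mM DTT. 7.6 nM AbuRPF-K(5-Fam)-NH2 peptide was then added, followed by anti-6His Tb cryptate, 1 h each. HTRF 520/490 nm ratio; four-parameter logistic IC50.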

[3] = biological target: T3, recombinant human cIAP2-BIR3 protein (Homo sapiens, UniProt Q13489); test: Recombinant human c-IAP2-BIR3 biochemical assay (HTRF, peptide displacement); conditions: 3.7 nM cIAP2-BIR3, 3.7 nM AbuRPF-K(5-Fam)-NH2 peptide, read-out: Protein binding IC50 (nM) c-IAP2
T3 construct: recombinant human cIAP2-BIR3 protein; purchased Reaction biology APT-11-372
T3 sequence (Q13489 238-349 limits assumed): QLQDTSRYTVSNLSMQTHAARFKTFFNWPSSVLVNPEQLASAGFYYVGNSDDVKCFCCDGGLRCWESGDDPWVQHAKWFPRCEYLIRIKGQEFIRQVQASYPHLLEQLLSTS
Outline: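 3.7 nM protein pre-incubated 1 h at room temperature with compounds (top 10 uM, 4-fold, 10 points) in 20 mM HEPES pH 7.5, 50 mM NaCl, 0.005% Tween-20, 1 mM DTT. Then 3.7 nM AbuRPF-K(5-Fam)-NH2 for 1 h, then anti-6His Tb cryptate 1 h. IC50 from 520/490 nm HTRF ratio, four-parameter logistic fit.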

SMILES | IC50 [1] [nM] | IC50 [2] [nM] | IC50 [3] [nM]
CNC(=O)c1nc2c(cc1Cc1ccc(F)cc1)N(C(=O)CN1C[C@@H](C)NC[C@@H]1CN1[C@H](C)COC[C@H]1C)[C@@H](C)CO2 [Example 68, (S)-1-(2-((2R,5R)-2-(((3R,5R)-3,5-dimethylmorpholino)methyl)-5-methylpiperazin-1-yl)acetyl)-7-(4-fluorobenzyl)-N,2-dimethyl-2,3-dihydro-1H-pyrido[2,3-b][1,4]oxazine-6-carboxamide] | 0.23 | 5.5 | 0.41
C[C@@H]1CN(CC(=O)N2c3cc(Cc4ccc(F)cc4)c(C(=O)N4CCC(F)(F)CC4)nc3OC[C@@H]2C)[C@@H](CN2[C@H](C)COC[C@H]2C)CN1 [Compound 103, 1-((S)-6-(4,4-difluoropiperidine-1-carbonyl)-7-(4-fluorobenzyl)-2-methyl-2,3-dihydro-1H-pyrido[2,3-b][1,4]oxazin-1-yl)-2-((2R,5R)-2-(((3R,5R)-3,5-dimethylmorpholino)methyl)-5-methylpiperazin-1-yl)ethan-1-one] | 0.24 | 5.1 | 0.43
CC1COc2ncc(Cc3ccc(F)cc3)cc2N1C(=O)CN1C[C@@H](C)NC[C@@H]1CN1CCOC[C@H]1C (stereo partly drawn) [Compound 19, 1-(7-(4-fluorobenzyl)-2-methyl-2,3-dihydro-1H-pyrido[2,3-b][1,4]oxazin-1-yl)-2-((2R,5R)-5-methyl-2-(((R)-3-methylmorpholino)methyl)piperazin-1-yl)ethan-1-one] | 0.82 | 7.7 | 1.2
COCCNC(=O)c1nc2c(cc1Cc1ccc(F)cc1)N(C(=O)CN1C[C@@H](C)NC[C@@H]1CN1[C@H](C)COC[C@H]1C)[C@@H](C)CO2 [Example 66, (S)-1-(2-((2R,5R)-2-(((3R,5R)-3,5-dimethylmorpholino)methyl)-5-methylpiperazin-1-yl)acetyl)-7-(4-fluorobenzyl)-N-(2-methoxyethyl)-2-methyl-2,3-dihydro-1H-pyrido[2,3-b][1,4]oxazine-6-carboxamide] | 0.25 | 5.9 | 0.52
CC(C)C[C@H]1COc2ncc(Cc3ccc(F)cc3)cc2N1C(=O)CN1C[C@@H](C)NC[C@@H]1CN1CCOC[C@H]1C [Compound 33] | 0.74 | 47 | 1.8
CC(C)[C@H]1COc2ncc(Cc3ccc(F)cc3)cc2N1C(=O)CN1C[C@@H](C)NC[C@@H]1CN1[C@H](C)COC[C@H]1C [Compound 46, 2-((2R,5R)-2-(((3R,5R)-3,5-dimethylmorpholino)methyl)-5-methylpiperazin-1-yl)-1-((S)-7-(4-fluorobenzyl)-2-isopropyl-2,3-dihydro-1H-pyrido[2,3-b][1,4]oxazin-1-yl)ethan-1-one] | 0.24 | 63 | 0.47
CCC(=O)Nc1nc2c(cc1Cc1ccc(F)cc1)N(C(=O)CN1C[C@@H](C)NC[C@@H]1CN1[C@H](C)COC[C@H]1C)[C@@H](C)CO2 [Compound 117] | 0.15 | 6.5 | 0.23
C[C@@H]1CN(CC(=O)N2c3cc(Cc4ccc(F)cc4)c(N)nc3OC[C@@H]2C)[C@@H](CN2[C@H](C)COC[C@H]2C)CN1 [Compound 115, 1-((S)-6-amino-7-(4-fluorobenzyl)-2-methyl-2,3-dihydro-1H-pyrido[2,3-b][1,4]oxazin-1-yl)-2-((2R,5R)-2-(((3R,5R)-3,5-dimethylmorpholino)methyl)-5-methylpiperazin-1-yl)ethan-1-one] | 0.17 | 6.9 | 0.28
C[C@@H]1CN(CC(=O)N2c3cc(Cc4ccc(F)cc4)c(C(=O)NC4CCOCC4)nc3OC[C@@H]2C)[C@@H](CN2[C@H](C)COC[C@H]2C)CN1 [Example 76, (S)-1-(2-((2R,5R)-2-(((3R,5R)-3,5-dimethylmorpholino)methyl)-5-methylpiperazin-1-yl)acetyl)-7-(4-fluorobenzyl)-2-methyl-N-(tetrahydro-2H-pyran-4-yl)-2,3-dihydro-1H-pyrido[2,3-b][1,4]oxazine-6-carboxamide] | 0.15 | 4.4 | 0.28
C[C@@H]1CN(CC(=O)N2c3cc(Cc4ccc(F)cc4)c(C(=O)NCCN4CCOCC4)nc3OC[C@@H]2C)C(CN2[C@H](C)COC[C@H]2C)CN1 (stereo partly drawn) [Example 75, (5)-1-(2-((2R,5R)-2-(((3R,5R)-3,5-dimethylmorpholino)methyl)-5-methylpiperazin-1-yl)acetyl)-7-(4-fluorobenzyl)-2-methyl-N-(2-morpholinoethyl)-2,3-dihydro-1H-pyrido[2,3-b][1,4]oxazine-6-carboxamide] | 0.2 | 6.5 | 0.54
C[C@@H]1CN(CC(=O)N2c3cc(Cc4ccc(F)cc4)cnc3OC[C@@H]2C)[C@@H](CN2[C@H](C)COC[C@H]2C)CN1 [Compound 22] | 0.13 | 3.97 | 0.21
C[C@@H]1CN(CC(=O)N2c3cc(Cc4ccc(F)cc4)c(C(=O)N4CCCCC4)nc3OC[C@@H]2C)[C@@H](CN2[C@H](C)COC[C@H]2C)CN1 [Compound 102, 2-((2R,5R)-2-(((3R,5R)-3,5-dimethylmorpholino)methyl)-5-methylpiperazin-1-yl)-1-((S)-7-(4-fluorobenzyl)-2-methyl-6-(piperidine-1-carbonyl)-2,3-dihydro-1H-pyrido[2,3-b][1,4]oxazin-1-yl)ethan-1-one] | 0.24 | 5.7 | 0.49
CC[C@H]1COc2ncc(Cc3ccc(F)cc3)cc2N1C(=O)CN1C[C@@H](C)NC[C@@H]1CN1CCOC[C@H]1C [Compound 28, 1-((S)-2-ethyl-7-(4-fluorobenzyl)-2,3-dihydro-1H-pyrido[2,3-b][1,4]oxazin-1-yl)-2-((2R,5R)-5-methyl-2-(((R)-3-methylmorpholino)methyl)piperazin-1-yl)ethan-1-one] | 0.26 | 14 | 0.62
C[C@@H]1CN(CC(=O)N2c3cc(Cc4ccc(F)cc4)c(C(=O)NCCN4CCN(C)CC4)nc3OC[C@@H]2C)[C@@H](CN2[C@H](C)COC[C@H]2C)CN1 [Compound 99, (S)-1-(2-((2R,5R)-2-(((3R,5R)-3,5-dimethylmorpholino)methyl)-5-methylpiperazin-1-yl)acetyl)-7-(4-fluorobenzyl)-2-methyl-N-(2-(4-methylpiperazin-1-yl)ethyl)-2,3-dihydro-1H-pyrido[2,3-b][1,4]oxazine-6-carboxamide] | 0.16 | 12.4 | 0.43
COCCC(=O)Nc1nc2c(cc1Cc1ccc(F)cc1)N(C(=O)CN1C[C@@H](C)NC[C@@H]1CN1[C@H](C)COC[C@H]1C)[C@@H](C)CO2 [Compound 121] | 0.2 | 4.2 | 0.27
C[C@@H]1CN(CC(=O)N2c3cc(Cc4ccc(F)cc4)c(C(=O)NC[C@@H]4CCCO4)nc3OC[C@@H]2C)[C@@H](CN2[C@H](C)COC[C@H]2C)CN1 [Compound 93] | 0.19 | 4.6 | 0.46
Cc1ccc([C@H]2COc3ncc(Cc4ccc(F)cc4)cc3N2C(=O)CN2C[C@@H](C)NC[C@@H]2CN2CCOC[C@H]2C)cc1 [Compound 30, 1-((S)-7-(4-fluorobenzyl)-2-(p-tolyl)-2,3-dihydro-1H-pyrido[2,3-b][1,4]oxazin-1-yl)-2-((2R,5R)-5-methyl-2-(((R)-3-methylmorpholino)methyl)piperazin-1-yl)ethan-1-one] | 0.35 | 7.3 | 0.72
